According to ChEMBL document CHEMBL1158661, “Celenamide E, a Tripeptide Alkaloid from the Patagonian Sponge Cliona chilensis” (J Nat Prod, 1998):
The source made the active and inactive calls.

What was measured:
Assay type in all cases: functional, organism-based
[1] = system: Staphylococcus aureus; assay: Antibiotic activity against Staphylococcus aureus at 50 ug/disk
[2] = system: Bacillus subtilis; assay: Antibiotic activity against Bacillus subtilis at 50 ug/disk
[3] = system: Micrococcus luteus; assay: Antibiotic activity against Micrococcus luteus at 50 ug/disk
[4] = system: Enterococcus faecalis; assay: Antibiotic activity against Enterococcus faecalis at 50 ug/disk

Measured: Activity

N/C(=C\c1cc(O)c(O)c(O)c1)C(=O)N[C@@H](Cc1c[nH]c2cc(Br)ccc12)C(=O)N/C=C/c1ccc(O)c(O)c1
active: all assays above
